Assay results as given in patent USRE39591E1, “6-O-substituted ketolides having antibacterial activity” (Abbott Laboratories, priority 1996, dated 2007).

System: up to 32 different microorganisms
Assay: in vitro antibacterial activity (MIC), agar dilution on Brain Heart Infusion (BHI) agar with Steers replicator
Type: cell-based
Conditions: unit assumed
Protocol: Representative compounds of the present invention were assayed in vitro for antibacterial activity as follows: Twelve petri dishes containing successive aqueous dilutions of the test compound mixed with 10 mL of sterilized Brain Heart Infusion (BHI) agar (Difco 0148-01-5) were prepared. Each plate was inoculated with 1:100 (or 1:10 for slow-growing strains, such as Micrococcus and Streptococcus) dilutions of up to 32 different microorganisms, using a Steers replicator block. The inoculated plates were incubated at 35°-37° C. for 20 to 24 hours. In addition, a control plate, using BHI agar containing no test compound, was prepared and incubated at the beginning and end of each test.
An additional plate containing a compound having known susceptibility patterns for the organisms being tested and belonging to the same antibiotic class as the test compound was also prepared and incubated as a further control, as well as to provide test-to-test comparability. Erythromycin A was used for this purpose.
After incubation, each plate was visually inspected. The minimum inhibitory concentration (MIC) was defined as the lowest concentration of drug yielding no growth, a slight haze, or sparsely isolated colonies on the inoculum spot as compared to the growth control.

[1] = Candida albicans CCH 442 (code TT)
[2] = Enterococcus faecism ATCC 8043 (code II)
[3] = Escherichia coli DC-2 (code SS)
[4] = Haemophilis influenzae DILL AMP R (code WW)
[5] = Micrococcus luteus ATCC 4698 (code PP)
[6] = Mycobacterium smegmatis ATCC 114 (code UU)
[7] = Nocardia Asteroides ATCC9970 (code VV)
[8] = Staphylococcus aureus 1775 (code GG)
[9] = Staphylococcus aureus A5177 (code BB)
[10] = Staphylococcus aureus A-5278 (code CC)
[11] = Staphylococcus aureus ATCC 6538P (code AA)
[12] = Staphylococcus aureus CMX 553 (code FF)
[13] = Staphylococcus aureus CMX 642A (code DD)
[14] = Staphylococcus aureus NCTC10649M (code EE)
[15] = Staphylococcus epidermidis 3519 (code HH)
[16] = Streptococcus Pneumonia 5649 (code ZZA)
[17] = Streptococcus Pneumonia 5979 (code ZZ)
[18] = Streptococcus Pneumonia ATCC6303 (code XX)
[19] = Streptococcus Pneumonia GYR 1171 (code YY)
[20] = Streptococcus agalactiae CMX 508 (code KK)
[21] = Streptococcus bovis A-5169 (code JJ)
[22] = Streptococcus pyogenes 930 (code MM)
[23] = Streptococcus pyogenes EES61 (code LL)
[24] = Streptococcus pyogenes PIU 2548 (code NN)

In the case of `CC[C@H]1OC(=O)[C@H](C)C(=O)[C@H](C)[C@@H](O[C@@H]2O[C@H](C)C[C@H](N(C)C)[C@H]2O)[C@@](C)(OCC=Cc2ccccc2)C[C@@H](C)C(=O)[C@H](C)[C@H]2OC(=O)O[C@@]21C` [Example 72, Compound of Formula (IX): L is CO, T is O, R is —CH2CH═CH-Phenyl], the MIC [1] is reported as greater than 100 µg/mL, the MIC [2] is reported as 0.05 µg/mL and the MIC [3] is reported as greater than 100 µg/mL. The MIC (Escherichia coli SS (code RR)) was 0.78 µg/mL, the MIC [4] was 8 µg/mL and the MIC [5] was 0.1 µg/mL. For the same compound, the MIC (Micrococcus luteus ATCC 9341 (code OO)) was 0.01 µg/mL, the MIC [6] was 0.78 µg/mL and the MIC [7] was 0.1 µg/mL. For the same compound, the MIC [8] was 100 µg/mL, the MIC [9] was 0.1 µg/mL and the MIC [10] was greater than 100 µg/mL. It also gave an MIC [11] of 0.1 µg/mL, an MIC [12] of 0.2 µg/mL and an MIC [13] of 0.1 µg/mL. For the same compound, the MIC [14] was 0.1 µg/mL, the MIC [15] was 0.1 µg/mL and the MIC [16] was 0.5 µg/mL. The MIC [17] was 64 µg/mL, the MIC [18] was 0.06 µg/mL and the MIC [19] was 0.06 µg/mL. It also gave an MIC [20] of 0.01 µg/mL, an MIC [21] of 0.01 µg/mL and an MIC [22] of 50 µg/mL. For the same compound, the MIC [23] was less than 0.005 µg/mL and the MIC [24] was 0.2 µg/mL.
Compound `CC[C@H]1OC(=O)[C@H](C)C(=O)[C@H](C)[C@@H](O[C@@H]2O[C@H](C)C[C@H](N(C)C)[C@H]2O)[C@@](C)(OCC#Cc2cnc3ccc([N+](=O)[O-])cc3c2)C[C@@H](C)C(=O)[C@H](C)[C@H]2NC(=O)O[C@@]21C` [Example 248, Compound of Formula (IX): L is CO, T is NH, R is —CH2—C≡C-(6-nitro-3-quinolyl)] has an MIC (organism code AA) of 0.05 µg/mL, an MIC (organism code BB) of 0.05 µg/mL and an MIC (organism code CC) greater than 100 µg/mL. For the same compound, the MIC (organism code DD) was 0.05 µg/mL, the MIC (organism code EE) was 0.05 µg/mL and the MIC (organism code FF) was 0.02 µg/mL. The MIC (organism code GG) was greater than 100 µg/mL, the MIC (organism code HH) was 0.05 µg/mL and the MIC (organism code II) was 0.02 µg/mL. It also gave an MIC (organism code JJ) of 0.02 µg/mL, an MIC (organism code KK) of no more than 0.005 µg/mL and an MIC (organism code LL) of no more than 0.005 µg/mL. It also gave an MIC (organism code MM) of 0.39 µg/mL, an MIC (organism code NN) of 0.1 µg/mL and an MIC (organism code OO) of 0.02 µg/mL. The MIC (organism code PP) was 0.1 µg/mL, the MIC (organism code QQ) was 50 µg/mL and the MIC (organism code RR) was 0.39 µg/mL. For the same compound, the MIC (organism code SS) was 50 µg/mL, the MIC (organism code TT) was greater than 100 µg/mL and the MIC (organism code UU) was 0.39 µg/mL. The MIC (organism code VV) was 0.02 µg/mL, the MIC (organism code WW) was 3 µg/mL and the MIC (organism code XX) was 0.03 µg/mL. The MIC (organism code YY) was 0.03 µg/mL, the MIC (organism code ZZ) was 4 µg/mL and the MIC (organism code ZZA) was 0.25 µg/mL.
Compound `C=CCO[C@@]1(C)C[C@@H](C)C(=O)[C@H](C)[C@H]2OC(=O)O[C@]2(C)[C@@H](CC)OC(=O)[C@H](C)C(=O)[C@H](C)[C@H]1O[C@@H]1O[C@H](C)C[C@H](N(C)C)[C@H]1O` [Example 71, Compound of Formula (IX): L is CO, T is O, R is —CH2CH═CH2] has an MIC [1] greater than 100 µg/mL, an MIC [2] of 1.56 µg/mL and an MIC [3] greater than 100 µg/mL. For the same compound, the MIC (Escherichia coli JUHL (code QQ)) was greater than 100 µg/mL, the MIC (Escherichia coli SS (code RR)) was 3.1 µg/mL and the MIC [4] was 64 µg/mL. For the same compound, the MIC [5] was 0.78 µg/mL, the MIC [6] was 25 µg/mL and the MIC [7] was 0.39 µg/mL. The MIC [8] was greater than 100 µg/mL, the MIC [9] was 0.39 µg/mL and the MIC [10] was greater than 100 µg/mL. It also gave an MIC [11] of 0.78 µg/mL, an MIC [12] of 3.1 µg/mL and an MIC [13] of 1.56 µg/mL. The MIC [14] was 0.78 µg/mL, the MIC [15] was 3.1 µg/mL and the MIC [16] was 1 µg/mL. The MIC [17] was greater than 128 µg/mL, the MIC [18] was 0.25 µg/mL and the MIC [19] was 0.25 µg/mL. The MIC [20] was 0.2 µg/mL, the MIC [21] was 0.2 µg/mL and the MIC [22] was greater than 100 µg/mL. The MIC [23] was 0.39 µg/mL and the MIC [24] was 0.39 µg/mL.
`CCC1OC(=O)C(C)C(=O)C(C)C(OC2OC(C)CC(N(C)C)C2O)C(C)(OCc2cccc(I)c2)CC(C)C(=O)C(C)C2NC(=O)OC12C` (stereo not shown) [Example 285, Compound of Formula (IX): L is CO, T is NH2, R is —CH2-(3-iodophenyl)] showed an MIC (organism code AA) of 3.1 µg/mL, an MIC (organism code BB) of 3.1 µg/mL and an MIC (organism code CC) greater than 100 µg/mL. For the same compound, the MIC (organism code DD) was 3.1 µg/mL, the MIC (organism code EE) was 3.1 µg/mL and the MIC (organism code FF) was 3.1 µg/mL. For the same compound, the MIC (organism code GG) was greater than 100 µg/mL, the MIC (organism code HH) was 3.1 µg/mL and the MIC (organism code II) was 0.39 µg/mL. The MIC (organism code JJ) was 0.2 µg/mL, the MIC (organism code KK) was 0.2 µg/mL and the MIC (organism code LL) was 0.05 µg/mL. It also gave an MIC (organism code MM) of 100 µg/mL, an MIC (organism code NN) of 0.78 µg/mL and an MIC (organism code OO) of 0.39 µg/mL. The MIC (organism code PP) was 0.39 µg/mL, the MIC (organism code QQ) was greater than 100 µg/mL and the MIC (organism code RR) was 12.5 µg/mL. The MIC (organism code SS) was greater than 100 µg/mL, the MIC (organism code TT) was greater than 100 µg/mL and the MIC (organism code UU) was 6.2 µg/mL. It also gave an MIC (organism code VV) of 1.56 µg/mL, an MIC (organism code WW) greater than 128 µg/mL and an MIC (organism code XX) of 0.25 µg/mL. For the same compound, the MIC (organism code YY) was 0.25 µg/mL, the MIC (organism code ZZ) was 64 µg/mL and the MIC (organism code ZZA) was 1 µg/mL.
